Source: article PMC2756574, “Crystal Structures of Multidrug Binding Protein TtgR in Complex with Antibiotics and Plant Antimicrobials” (Journal of Molecular Biology, 2007)

How the values were obtained:
TtgR [1] = biological target: TtgR (Pseudomonas putida, UniProt Q9AIU0, R176G); assay: biochemical
TtgR [2] = biological target: T1, TtgR (Pseudomonas putida, UniProt Q9AIU0); assay: isothermal titration calorimetry; format: binding
T1 construct: full-length, ttgR in pET29a+, expressed in E. coli B834(DE3); heparin and gel filtration purification; homodimer; residues about 10-210 seen in crystals

TtgR [3] = biological target: T1, TtgR; assay: X-ray crystal structure of complex; details: general binding site, 2 per dimer; co-crystal, 2.4 Å

| Structure (SMILES) | Kd (TtgR [1]) | Kd (TtgR [2]) | X-ray crystal structure of complex (TtgR [3]) |
| --- | --- | --- | --- |
| O=C(CCc1ccc(O)cc1)c1c(O)cc(O)cc1O [phloretin] | 9.2 ± 0.5 µM | 0.05 ± 0.01 µM | – |
| O=c1c(O)c(-c2ccc(O)c(O)c2)oc2cc(O)cc(O)c12 [quercetin] | – | – | Both effectors bind at similar locations to the hydrophobic binding site as tetracycline and chloramphenicol |
